Assay results from patent publication US20140357512A1, “HISTONE DEACETYLASE (HDAC) BIOMARKERS IN MULTIPLE MYELOMA” (priority 2013, published 2014).

Test system: human myeloma cell line MM.1S
Assay: Biological pathway analysis of SILAC biomarker peptides against pathway database (broadinstitute gsea)
Procedure: Once biomarker peptides are identified for a specific drug by the SILAC method, the biomarker peptides may be compared to peptides/proteins in a biological pathway database in order to identify major biological pathways or functions implicated by the drug's action. A preferred pathway analysis website is at www dot broadinstitute dot org/gsea/index dot jsp.
This example describes the biological pathway analysis that was performed on each of Compound A, Compound B, and Tubastatin A.
Once biomarker peptides were identified for a specific drug (either Compound A, Compound B, or Tubastatin A) by the SILAC method in Example 1, the biomarker peptides were compared to peptides/proteins in the biological pathway database at www dot broadinstitute dot org/gsea/index dot jsp in order to identify major biological pathways or functions implicated by the drug's action.

In the case of O=C(NO)c1cnc(NC2(c3cccc(F)c3)CCCCC2)nc1 [Compound B, 2-((1-(3-fluorophenyl)cyclohexyl)amino)-N-hydroxypyrimidine-5-carboxamide], the “Observed: number of genes in pathway REACTOME_PACKAGING_OF_TELOMERE_ENDS” value (Pathway_size 48) is reported as 15, the “Ratio observed/pathway size, REACTOME_PACKAGING_OF_TELOMERE_ENDS” value (Pathway_size 48) is reported as 0.3125 and the “Observed: number of genes in pathway REACTOME_RNA_POL_I_PROMOTER_OPENING” value (Pathway_size 61) is reported as 15. For the same compound, the “Ratio observed/pathway size, REACTOME_RNA_POL_I_PROMOTER_OPENING” value (Pathway_size 61) was 0.2459, the “Observed: number of genes in pathway REACTOME_DEPOSITION_OF_NEW_CENPA_CONTAINING_NUCLEOSOMES_AT_THE_CENTROMERE” value (Pathway_size 64) was 15 and the “Ratio observed/pathway size, REACTOME_DEPOSITION_OF_NEW_CENPA_CONTAINING_NUCLEOSOMES_AT_THE_CENTROMERE” value (Pathway_size 64) was 0.2344. The “Observed: number of genes in pathway REACTOME_MEIOTIC_SYNAPSIS” value (Pathway_size 71) was 16, the “Ratio observed/pathway size, REACTOME_MEIOTIC_SYNAPSIS” value (Pathway_size 71) was 0.2254 and the “Observed: number of genes in pathway MORF_PPP2CA” value (Pathway_size 127) was 18. For the same compound, the “Ratio observed/pathway size, MORF_PPP2CA” value (Pathway_size 127) was 0.1417, the “Observed: number of genes in pathway MORF_NME2” value (Pathway_size 154) was 19 and the “Ratio observed/pathway size, MORF_NME2” value (Pathway_size 154) was 0.1234. For the same compound, the “Observed: number of genes in pathway MORF_NPM1” value (Pathway_size 162) was 20, the “Ratio observed/pathway size, MORF_NPM1” value (Pathway_size 162) was 0.1235 and the “Observed: number of genes in pathway MORF_CTBP1” value (Pathway_size 168) was 24. The “Ratio observed/pathway size, MORF_CTBP1” value (Pathway_size 168) was 0.1429, the “Observed: number of genes in pathway MORF_G22P1” value (Pathway_size 171) was 23 and the “Ratio observed/pathway size, MORF_G22P1” value (Pathway_size 171) was 0.1345. For the same compound, the “Observed: number of genes in pathway MORF_RAD21” value (Pathway_size 182) was 20, the “Ratio observed/pathway size, MORF_RAD21” value (Pathway_size 182) was 0.1099 and the “Observed: number of genes in pathway PENG_LEUCINE_DEPRIVATION_DN” value (Pathway_size 187) was 21. The “Ratio observed/pathway size, PENG_LEUCINE_DEPRIVATION_DN” value (Pathway_size 187) was 0.1123, the “Observed: number of genes in pathway MORF_DAP3” value (Pathway_size 193) was 21 and the “Ratio observed/pathway size, MORF_DAP3” value (Pathway_size 193) was 0.1088. For the same compound, the “Observed: number of genes in pathway MORF_ANP32B” value (Pathway_size 197) was 27, the “Ratio observed/pathway size, MORF_ANP32B” value (Pathway_size 197) was 0.1371 and the “Observed: number of genes in pathway MORF_SKP1A” value (Pathway_size 202) was 22. The “Ratio observed/pathway size, MORF_SKP1A” value (Pathway_size 202) was 0.1089, the “Observed: number of genes in pathway MORF_AATF” value (Pathway_size 205) was 22 and the “Ratio observed/pathway size, MORF_AATF” value (Pathway_size 205) was 0.1073. The “Observed: number of genes in pathway MORF_ACP1” value (Pathway_size 210) was 22, the “Ratio observed/pathway size, MORF_ACP1” value (Pathway_size 210) was 0.1048 and the “Observed: number of genes in pathway MORF_XRCC5” value (Pathway_size 234) was 26. The “Ratio observed/pathway size, MORF_XRCC5” value (Pathway_size 234) was 0.1111, the “Observed: number of genes in pathway MORF_UBE2I” value (Pathway_size 238) was 31 and the “Ratio observed/pathway size, MORF_UBE2I” value (Pathway_size 238) was 0.1303. For the same compound, the “Observed: number of genes in pathway MORF_EIF3S2” value (Pathway_size 244) was 25, the “Ratio observed/pathway size, MORF_EIF3S2” value (Pathway_size 244) was 0.1025 and the “Observed: number of genes in pathway MORF_HDAC1” value (Pathway_size 254) was 30. For the same compound, the “Ratio observed/pathway size, MORF_HDAC1” value (Pathway_size 254) was 0.1181, the “Observed: number of genes in pathway MORF_DEK” value (Pathway_size 262) was 29 and the “Ratio observed/pathway size, MORF_DEK” value (Pathway_size 262) was 0.1107. The “Observed: number of genes in pathway MORF_RAN” value (Pathway_size 268) was 33, the “Ratio observed/pathway size, MORF_RAN” value (Pathway_size 268) was 0.1231 and the “Observed: number of genes in pathway MORF_BUB3” value (Pathway_size 276) was 27. The “Ratio observed/pathway size, MORF_BUB3” value (Pathway_size 276) was 0.09783, the “Observed: number of genes in pathway MORF_SOD1” value (Pathway_size 277) was 23 and the “Ratio observed/pathway size, MORF_SOD1” value (Pathway_size 277) was 0.08303. For the same compound, the “Observed: number of genes in pathway MORF_CSNK2B” value (Pathway_size 287) was 27, the “Ratio observed/pathway size, MORF_CSNK2B” value (Pathway_size 287) was 0.09408 and the “Observed: number of genes in pathway MORF_GNB1” value (Pathway_size 303) was 30. The “Ratio observed/pathway size, MORF_GNB1” value (Pathway_size 303) was 0.09901, the “Observed: number of genes in pathway PENG_GLUTAMINE_DEPRIVATION_DN” value (Pathway_size 337) was 25 and the “Ratio observed/pathway size, PENG_GLUTAMINE_DEPRIVATION_DN” value (Pathway_size 337) was 0.07418. The “Observed: number of genes in pathway MORF_RAD23A” value (Pathway_size 345) was 34, the “Ratio observed/pathway size, MORF_RAD23A” value (Pathway_size 345) was 0.09855 and the “Observed: number of genes in pathway HSIAO_HOUSEKEEPING_GENES” value (Pathway_size 389) was 36. The “Ratio observed/pathway size, HSIAO_HOUSEKEEPING_GENES” value (Pathway_size 389) was 0.09255, the “Observed: number of genes in pathway REACTOME_CELL_CYCLE” value (Pathway_size 412) was 29 and the “Ratio observed/pathway size, REACTOME_CELL_CYCLE” value (Pathway_size 412) was 0.07039. For the same compound, the “Observed: number of genes in pathway CASORELLI_ACUTE_PROMYELOCYTIC_LEUKEMIA_DN” value (Pathway_size 662) was 31, the “Ratio observed/pathway size, CASORELLI_ACUTE_PROMYELOCYTIC_LEUKEMIA_DN” value (Pathway_size 662) was 0.04683 and the “Observed: number of genes in pathway KIM_BIPOLAR_DISORDER_OLIGODENDROCYTE_DENSITY_CORR_UP” value (Pathway_size 681) was 31. The “Ratio observed/pathway size, KIM_BIPOLAR_DISORDER_OLIGODENDROCYTE_DENSITY_CORR_UP” value (Pathway_size 681) was 0.04552, the “Observed: number of genes in pathway BENPORATH_MYC_MAX_TARGETS” value (Pathway_size 775) was 35 and the “Ratio observed/pathway size, BENPORATH_MYC_MAX_TARGETS” value (Pathway_size 775) was 0.04516. The “Observed: number of genes in pathway PUJANA_CHEK2_PCC_NETWORK” value (Pathway_size 778) was 39, the “Ratio observed/pathway size, PUJANA_CHEK2_PCC_NETWORK” value (Pathway_size 778) was 0.05013 and the “Observed: number of genes in pathway GRADE_COLON_CANCER_UP” value (Pathway_size 870) was 40. For the same compound, the “Ratio observed/pathway size, GRADE_COLON_CANCER_UP” value (Pathway_size 870) was 0.04598, the “Observed: number of genes in pathway MACROMOLECULAR_COMPLEX” value (Pathway_size 945) was 34 and the “Ratio observed/pathway size, MACROMOLECULAR_COMPLEX” value (Pathway_size 945) was 0.03598. For the same compound, the “Observed: number of genes in pathway LOPEZ_MBD_TARGETS” value (Pathway_size 957) was 37, the “Ratio observed/pathway size, LOPEZ_MBD_TARGETS” value (Pathway_size 957) was 0.03866 and the “Observed: number of genes in pathway DANG_BOUND_BY_MYC” value (Pathway_size 1102) was 46. The “Ratio observed/pathway size, DANG_BOUND_BY_MYC” value (Pathway_size 1102) was 0.04174, the “Observed: number of genes in pathway INTRACELLULAR_ORGANELLE_PART” value (Pathway_size 1192) was 47 and the “Ratio observed/pathway size, INTRACELLULAR_ORGANELLE_PART” value (Pathway_size 1192) was 0.03943. For the same compound, the “Observed: number of genes in pathway ORGANELLE_PART” value (Pathway_size 1197) was 47, the “Ratio observed/pathway size, ORGANELLE_PART” value (Pathway_size 1197) was 0.03927 and the “Observed: number of genes in pathway BLALOCK_ALZHEIMERS_DISEASE_DN” value (Pathway_size 1237) was 49. For the same compound, the “Ratio observed/pathway size, BLALOCK_ALZHEIMERS_DISEASE_DN” value (Pathway_size 1237) was 0.03961, the “Observed: number of genes in pathway DODD_NASOPHARYNGEAL_CARCINOMA_DN” value (Pathway_size 1368) was 39 and the “Ratio observed/pathway size, DODD_NASOPHARYNGEAL_CARCINOMA_DN” value (Pathway_size 1368) was 0.02851. The “Observed: number of genes in pathway DIAZ_CHRONIC_MEYLOGENOUS_LEUKEMIA_UP” value (Pathway_size 1382) was 58, the “Ratio observed/pathway size, DIAZ_CHRONIC_MEYLOGENOUS_LEUKEMIA_UP” value (Pathway_size 1382) was 0.04197 and the “Observed: number of genes in pathway NUCLEUS” value (Pathway_size 1428) was 40. The “Ratio observed/pathway size, NUCLEUS” value (Pathway_size 1428) was 0.02801, the “Observed: number of genes in pathway PUJANA_ATM_PCC_NETWORK” value (Pathway_size 1440) was 41 and the “Ratio observed/pathway size, PUJANA_ATM_PCC_NETWORK” value (Pathway_size 1440) was 0.02847. For the same compound, the “Observed: number of genes in pathway PUJANA_BRCA1_PCC_NETWORK” value (Pathway_size 1651) was 68, the “Ratio observed/pathway size, PUJANA_BRCA1_PCC_NETWORK” value (Pathway_size 1651) was 0.04119 and the “Observed: number of genes in pathway GRAESSMANN_APOPTOSIS_BY_DOXORUBICIN_DN” value (Pathway_size 1781) was 44. The “Ratio observed/pathway size, […]_APOPTOSIS_BY_DOXORUBICIN_DN” value (Pathway_size 1781) was 0.02471, the “Observed: number of genes in pathway PILON_KLF1_TARGETS_DN” value (Pathway_size 1972) was 45 and the “Ratio observed/pathway size, PILON_KLF1_TARGETS_DN” value (Pathway_size 1972) was 0.02282. The “Observed: number of genes in pathway CYTOPLASM” value (Pathway_size 2130) was 50, the “Ratio observed/pathway size, CYTOPLASM” value (Pathway_size 2130) was 0.02347 and the “Observed: number of genes in pathway GGGCGGR_V$SP1_Q6” value (Pathway_size 2939) was 53. The “Ratio observed/pathway size, GGGCGGR_V$SP1_Q6” value (Pathway_size 2939) was 0.01803.
